Reference: US6960586B2, “Imidazole derivatives, process for their preparation and their use” (Takeda Pharmaceutical Company Limited, priority 2000, dated 2005)

What was measured:
Rat Steroid C17,20-lyase = target: T1, Rat Steroid C17,20-lyase (Rattus norvegicus, UniProt P11715); assay: Assay of inhibitory activity on rat steroid C17,20-lyase (testis microsomes); assay type: biochemical; conditions: 10 nM [1,2-3H]-17α-hydroxyprogesterone, 37° C., 7 minutes
T1 construct: Testes were excised from 10- to 13-week-old male SD rats, homogenized, and centrifuged to give microsomes; from tissue; host or cells: testis microsomes of male SD rats
T1 sequence (P11715 1-507): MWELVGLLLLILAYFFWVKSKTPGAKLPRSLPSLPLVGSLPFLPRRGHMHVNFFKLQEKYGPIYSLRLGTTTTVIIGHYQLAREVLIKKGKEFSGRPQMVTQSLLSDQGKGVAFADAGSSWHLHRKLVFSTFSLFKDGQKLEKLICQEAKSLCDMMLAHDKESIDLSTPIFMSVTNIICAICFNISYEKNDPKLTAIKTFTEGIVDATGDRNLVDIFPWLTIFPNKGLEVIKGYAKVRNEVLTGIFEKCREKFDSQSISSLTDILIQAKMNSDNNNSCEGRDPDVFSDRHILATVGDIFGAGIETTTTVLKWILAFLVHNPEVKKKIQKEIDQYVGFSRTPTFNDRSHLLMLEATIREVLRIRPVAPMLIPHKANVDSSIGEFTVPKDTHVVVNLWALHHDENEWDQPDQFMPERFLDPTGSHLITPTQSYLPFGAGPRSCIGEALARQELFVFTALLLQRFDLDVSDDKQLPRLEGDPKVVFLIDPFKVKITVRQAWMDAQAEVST
Procedure: Assay of Inhibitory Activity on Rat Steroid C17,20-lyase
The activity was determined according to The Prostate, vol. 26, 140-150 (1995).
Testes were excised from 10- to 13-week-old male SD rats, homogenized, and centrifuged to give microsomes. [1,2-^3H]-17α-hydroxyprogesterone having a final concentration of 10 nM, NADPH solution and test compounds were dissolved in 10 μl of 100 mM phosphate buffer (pH 7.4) and microsome protein (7 μg/10 μl) was added. The reaction mixture was incubated at 37° C. for 7 minutes. Ethyl acetate (40 μl) was added and the mixture was centrifuged. The substrate and the products (androstenedione and testosterone) in the supernatant were separated by silica gel thin layer chromatography (TLC). The spots were detected and quantitatively determined by BAS 2000 Bioimage analyzer. The concentration of the test compounds necessary to reduce the amount of the products by 50% (IC50) relative to the amount of the products without test compound (control) as 100% was calculated, and shown in Table 1.

human CYP3A4 = target: T2, human CYP3A4 (Homo sapiens, UniProt P08684); assay: Assay of human CYP3A4-inhibitory activity; assay type: in vitro ADME; conditions: testosterone 100 μM as substrate, 6β-hydroxytestosterone formation, 37° C., 30 min
T2 construct: purchased GENTEST
Procedure: Assay of Human CYP3A4-Inhibitory Activity
Performed as in the following according to Journal of Biological Chemistry, vol. 256, 11937 (1983).
A phosphate buffer solution (50 mM, pH 7.4) containing testosterone (final concentration 100 μM, hereinafter the same), human CYP3A4 (10 pmol/ml, manufactured by GENTEST), NADPH producing system (0.5 mM NADP, 5 mM glucose-6-phosphate, 5 mM magnesium chloride, 1.5 units/ml glucose-6-phosphate dehydrogenase) and the test compound was incubated at 37° C. for 30 min. Acetonitrile was added to the reaction mixture and the mixture was stirred and centrifuged. The 6β-hydroxytestosterone in the obtained supernatant was analyzed by high performance liquid chromatography. The concentration (IC50) of the compound necessary for 50% inhibition was calculated taking the production amount without addition of the test compound as 100%.

testosterone synthesis = assay: Assay of inhibitory activity on testosterone synthesis in rats; assay type: in vivo, rat; conditions: 25 mg/kg orally, male SD rats, serum testosterone two hours after administration, relative to control group
Procedure: Assay of Inhibitory Activity on Testosterone Synthesis in Rats
Test compounds (25 mg/kg) were orally administered to 9-week-old male SD (Sprague Dawley) rats. Two hours after administration of the compounds, blood was drawn and testosterone concentration in the obtained serum was measured by radioimmunoassay. The percentage (T/C, %) of the testosterone concentration of test compounds administration group to that of the control group was calculated, and taken as the inhibitory activity on testosterone synthesis.

T2 sequence (P08684 whole entry): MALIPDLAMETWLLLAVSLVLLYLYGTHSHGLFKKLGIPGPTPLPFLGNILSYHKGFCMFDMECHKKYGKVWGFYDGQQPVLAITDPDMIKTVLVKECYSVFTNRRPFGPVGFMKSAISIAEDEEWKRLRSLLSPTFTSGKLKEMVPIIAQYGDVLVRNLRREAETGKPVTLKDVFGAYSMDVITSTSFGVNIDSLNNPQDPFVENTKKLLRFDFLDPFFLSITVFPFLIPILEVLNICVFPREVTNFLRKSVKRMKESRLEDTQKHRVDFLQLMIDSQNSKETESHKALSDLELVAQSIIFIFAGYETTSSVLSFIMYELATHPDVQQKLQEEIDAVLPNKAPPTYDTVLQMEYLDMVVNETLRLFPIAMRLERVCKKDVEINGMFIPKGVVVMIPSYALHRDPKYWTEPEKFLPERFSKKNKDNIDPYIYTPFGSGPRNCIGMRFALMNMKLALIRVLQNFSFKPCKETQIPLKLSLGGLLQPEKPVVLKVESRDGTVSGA

Row | SMILES | IC50 (Rat Steroid C17,20-lyase) | IC50 (human CYP3A4) | Testosterone synthesis inhibitory activity (T/C, %) (testosterone synthesis)
1 | CC(C)CC(O)(c1ccc2c3c(ccc2c1)C(=O)N(C)C3)c1c[nH]cn1 (stereo not shown) [Example 14, 7-[1-hydroxy-1-(1H-imidazol-4-yl)-3-methylbutyl]-2-methyl-1,2-dihydro-3H-benzo[e]isoindol-3-one] | 22 nM |  | 
2 | CC(C)C(O)(c1ccc2c3c(ccc2c1)C(=O)N(C)C3)c1c[nH]cn1 (single isomer, unassigned; (-)) [Example 16, (−)-7-[1-hydroxy-1-(1H-imidazol-4-yl)-2-methylpropyl]-2-methyl-1,2-dihydro-3H-benzo[e]isoindol-3-one] |  |  | 4.3%
3 | CC(C)C(O)(c1ccc2cc3c(cc2c1)CNC3=O)c1c[nH]cn1 (stereo not shown) [Example 10, 6-[1-hydroxy-1-(1H-imidazol-4-yl)-2-methylpropyl]-2,3-dihydro-1H-benzo[f]isoindol-1-one] | 42 nM | > 10000 nM | 
4 | CCN1Cc2c(ccc3cc(C(O)(c4c[nH]cn4)C(C)C)ccc23)C1=O (stereo not shown) [Example 3, 2-ethyl-7-[1-hydroxy-1-(1H-imidazol-4-yl)-2-methylpropyl]-1,2-dihydro-3-benzo[e]isoindol-3-one] | 23 nM | > 10000 nM | 

Second part, led by results:

Row | IC50 (Rat Steroid C17,20-lyase) | IC50 (human CYP3A4) | SMILES | Testosterone synthesis inhibitory activity (T/C, %) (testosterone synthesis)
5 | 15 nM | > 10000 nM | CC(C)C(O)(c1ccc2c3c(ccc2c1)C(=O)N(C)C3)c1c[nH]cn1 (stereo not shown) [Example 2, 7-[1-hydroxy-1-(1H-imidazol-4-yl)-2-methylpropyl]-2-methyl-1,2-dihydro-3H-benzo[e]isoindol-3-one] | 
6 | < 10 nM |  | CC(C)C(O)(c1ccc2c3c(ccc2c1)C(=O)NC3)c1c[nH]cn1 (stereo not shown) [Example 1, 7-[1-hydroxy-1-(1H-imidazol-4-yl)-2-methylpropyl]-1,2-dihydro-3H-benzo[e]isoindol-3-one] | 6.0%
